A melting point compilation (Tetko et al.; mined from patent text by program, amines drawn as free bases though some values may be those of a salt)

Structure (SMILES) | melting point [°C]
CS(=O)(=O)c1ccc(CC(=O)c2ccc(F)cc2)cc1 | 182 to 183
Cc1ccc(-c2ccc3c(c2)C=C(C(=O)Nc2ccc(CN4CCN(C)CC4)cc2)CC3)cc1 | 174 to 175
N#Cc1ccc(N(Cc2ccc3c(c2)NS(=O)(=O)O3)n2ccnc2)cc1 | 230
COc1ccc(Br)c(OC)c1-c1ccc(C[C@H](NC(=O)c2c(Cl)cccc2Cl)C(=O)O)cc1 | 205 to 206
C=CC(=O)Oc1ccc(Cl)c2c1Sc1ccccc1C2 | 164 to 165
NC(=O)/C=C/c1ccc(F)cc1 | 130
CCn1c(=O)[nH]c2cc(NC(C)=O)ccc21 | 247 to 249
CC1CCN2C(=O)c3ccccc3NC(=O)C12 (stereo unspecified) | 117 to 118
Cc1ccc(Cn2nc(CCCc3ccc(OC(C)(C)C(=O)O)cc3)[nH]c2=O)cc1C | 146 to 150
CC(C)C[C@H](NC(=O)OCc1ccccc1)C(=O)N[C@@H](Cc1ccccc1)C(=O)O | 120 to 122
CCn1ccccc1=S | 50
CNc1nc(Cl)cc(NS(=O)(=O)c2ccc(Cl)cc2)n1 | 196 to 198
Nc1ncn(C[C@@H](CO)OCP(=O)(O)O)c(=O)n1 | 175 to 178
COc1ccc(-c2cc(=S)n(Cc3cccnc3)nc2-c2ccc(OC)cc2)cc1 | 163 to 164
COCCOc1ccc2ccc(N)nc2n1 | 176
CN(C)S(=O)(=O)c1cc(C(=O)O)cc(N2CCCC2)c1Oc1ccccc1 | 214 to 215
CC(=O)NC[C@H]1CN(c2ccc(N3CCC4(CC3)CC4=S=O)c(F)c2)C(=O)O1 | 78 to 80
COc1ccc(-c2cc3c(n2-c2ccc(O)c(C(=O)O)c2)CCCC3)cc1 | 219 to 221
Cc1ccc2c(NC(=NC#N)NC(NC(=O)Cc3ccc(Cl)cc3)C(C)(C)C)cccc2n1 (stereo unspecified) | 198 to 199
S=c1n(CN2CCCC2)nc(-c2ccncc2)n1-c1ccccc1 | 139
Nc1ccccc1CN(N)c1ccc(Cl)cc1 | 83 to 87
Cc1ccc(Oc2ccc(C(=N)NN)cc2)c(O)c1 | > 260
CC(C)(C)CC(=O)NCc1cccs1 | 83 to 84
COCCCNc1nc(N)c(C(=O)c2ccccc2[N+](=O)[O-])s1 | 170 to 172
O=C(O)c1ccccc1C(=O)NCCC(Oc1c(Br)cc(-c2ccc(-c3c(Cc4ccccc4)sc4ccccc34)cc2)cc1Br)C(=O)O (stereo unspecified) | 130 to 132
CCc1cnn(CC(=O)O)c1OCCn1cc(C(=O)NCc2ccc(C(F)(F)F)cc2)c(OC(C)C)n1 | 183 to 184

Structure (SMILES) | melting point [°C]
CCOC(=O)C1=COc2cc(C(C)=O)ccc2O1 | 122
COc1ccc2c(c1)[C@](C)(NC(=O)c1cc3cccc4c3n1CC4)C(=O)N2c1ccc(F)cc1 | 277 to 278
COCCNc1cc(NCCOC)c([N+](=O)[O-])cc1Cl | 106
COc1ccc(OCC(=O)O)c(C(Nc2ccc(C(=N)N)cc2)C(=O)O)c1 (racemic) | 213
O=C(O)c1ccc(F)c2c1CC(N(CCCc1c[nH]c3ccc(F)cc13)C1CCC1)CO2 (stereo unspecified) | 140
CCOC1(OC)CC(C)=C(CCc2cccc(OC)c2)C=C1OC (stereo unspecified) | 178 to 180
Cc1cnc(C2=NC(C)(C(C)C)C(=O)N2)c(C(O)(c2cccs2)c2cccs2)c1 (stereo unspecified) | 190 to 191
CC(=O)c1cnc(N)o1 | 214 to 215
COc1ccc(N(S(C)(=O)=O)S(C)(=O)=O)cc1CN1CCC(=O)C(C(c2ccccc2)c2ccccc2)C1 (stereo unspecified) | 132 to 135
CC(=O)NC(CCCCCCCCC(NC(C)=O)C1CCCCCCC1)C1CCCCCCC1 (stereo unspecified) | 144 to 149
CCN(CC)CCNC(=O)c1nc(Cl)c(NCCN(CC)CC)nc1OC | 112
CCOC(=O)CCCCCCC1C(=O)NC(=O)N1CCC(=O)C1CCCCC1 (stereo unspecified) | 77.5 to 78.5
CNC(=O)c1cc2ccccc2c(-c2ccccc2I)n1 | 167 to 168
O=C1CSc2ccc(CO)nc2N1 | 120 to 135
CCC(=O)NCc1cccc(-c2nc(=O)c3ccccc3s2)n1 | 199 to 200
Cc1nn(CC(O)c2ccc(Cl)cc2)c(=O)n1-c1ccc(N2CCN(c3ccc(O)cc3)CC2)cc1 (single isomer, unassigned; (+)) | 249
OC(c1ccc(F)cc1)(c1ccc(F)cc1)C1CCN(Cc2ccccc2)CC1 | 113 to 115
CCC1(CC)OC(=O)Nc2ccccc21 | 159 to 160
OC(c1ccc(F)cc1)c1cc(Br)cc(Br)c1 (stereo unspecified) | 92 to 93
CCOC(=O)C(=O)c1c[nH]c2c1ccc1c3ccccc3[nH]c12 | > 295
Nc1ccc2sc(C=Cc3ccccc3)nc2c1 | 154 to 156
CC1(C)C(=O)N(c2ccc(C#N)c(C(F)(F)F)c2)C(=S)N1CCF | 135
[O-][N+](O)=Cc1ccc(Cl)cc1 | 151 to 153
Cc1cccc(COc2cccc(OCc3ccc4ccccc4n3)c2)c1OCC(=O)O | 154 to 157
CCCOc1ccc2c(c1)C(c1ccc(OC)cc1OCC(=O)O)C(C(=O)O)C2c1cc2c(cc1OC)OCO2 (stereo unspecified) | 188 to 190
Cc1c[nH]c(Cc2ccc(O)cc2)n1 | 193 to 194

Structure (SMILES) | melting point [°C]
COc1ccccc1NS(=O)(=O)c1ccc(C)cc1 | 126 to 128
COc1ccc([N+](=O)[O-])cc1C=CC1=NC(C)(C)CO1 | 115 to 116
CCOC(=O)NN=Cc1nc[nH]c1C | 195 to 203
CNC(=O)c1cccc2c1C1(COc3cc4c(cc31)OCCO4)C(=O)N2C (stereo unspecified) | 120 to 122
CCOC(=O)c1cc2cc(Cl)ccc2n1C | 81.5 to 82
CNC(=O)n1nc(Oc2ccc([N+](=O)[O-])cc2C(F)(F)F)cc1C | 142 to 144
O=C1CC[C@@H](COc2cccnc2)N1 | 121 to 122
CCOC(=O)c1ccc(NC(=O)c2ccc3c(c2)SCCC3(C)C)cc1 | 148 to 150
CC1(C)CCC(C)(C)c2cc(-c3cc(-c4ccc(C(=O)O)cc4)ccc3OCCCCCCO)ccc21 | 200 to 201
CC(C)(C)c1c(-c2ccc(S(C)(=O)=O)cc2)cnn(-c2ccc(F)c(F)c2)c1=O | 158 to 161
CCOC(=O)/C=C(\C)Cl | 58 to 60
CC(C)c1nc(C(O)(C(F)(F)F)C(F)(F)F)[nH]c1-c1ccc([N+](=O)[O-])cc1 | 157 to 160
O=C(O)C1c2ccccc2COc2ccccc21 (stereo unspecified) | 200 to 201
CCCCS(=O)c1nc[nH]n1 (stereo unspecified) | 82 to 83
N#Cc1cnc2c(oc3ccccc32)c1Oc1ccc(Cl)cc1F | 138 to 140
COc1ccc(C(O)c2cccc3c2ccn3S(=O)(=O)c2ccc(C)cc2)cc1 (stereo unspecified) | 90
CCOC(=O)c1c(CCl)nc2sc3c(c2c1-c1ccc(OC)c(OC)c1)CCN(C(=O)c1ccc(Cl)cc1)C3 | 132 to 133
CCN(CC)CCCN1C(=O)NC(Cc2c[nH]c3ccccc23)C1=O (stereo unspecified) | 90
CC(C)=CCN1Cc2c(Cl)ccc([N+](=O)[O-])c2NC[C@@H]1C | 60 to 62
CCOC=C1C(=O)N(c2cccc(Cl)c2)c2ccccc21 | 132 to 134
CN1C(=O)C(c2cccc(-c3cncnc3)c2)(c2cc(C#N)n(C)c2)N=C1N (stereo unspecified) | 214 to 225
COc1cccc(-c2nc(-c3ccccc3)c3ncc(-c4ccc(C(C)=O)cc4)cc3n2)c1 | 133 to 134
O=C(CCc1ccc(NC(=O)C(F)(F)F)c([N+](=O)[O-])c1)N1CCCCC1 | 102 to 103
COc1cccc(-c2nn3c(c2C(=O)O)-c2ccccc2CC3)c1 | 190
CN1Cc2c(-c3nc(CN4C(=O)c5ccccc5C4=O)no3)ncn2-c2ccccc2C1=O | 239 to 240
O=C(NCc1ccc(Cl)cc1)c1n[nH]c2ccccc2c1=O | 269 to 271

Structure (SMILES) | melting point [°C]
COc1ccc(CCCOCCCCCNCC(O)c2cc(Cl)c(N)c(Cl)c2)cc1 (stereo unspecified) | 63 to 64
Cc1ccc(-n2nc(C(C)(C)C)cc2NC(=O)c2cccc3cc(Oc4cc(Cl)ncn4)ccc23)cc1 | 163 to 164
CCn1c(=O)ccc2cnc(Nc3ccccc3OC)nc21 | 126 to 128
O=C(c1ccc(O)cc1)c1oc2ccccc2c1-c1ccc(Cl)cc1 | 220 to 221
COCCOCCOCCOc1cc(OC)c(-c2cccs2)cc1/C=C/C(=O)c1ccc(C(=O)O)cc1 | 137 to 138
COC(=O)c1ccc(OCC(O)c2ccc3c(c2)C(C)(C)CCS3)cc1O (stereo unspecified) | 113 to 115
CSc1sc(C(N)=O)c2c1-c1nc(C)sc1CC2 | 269 to 270
CCCCCCCc1[nH]c2cc(C(=O)OC)ccc2c1C=O | 177 to 180
O=C(Nc1cc(CN2CCCCC2)c(O)c(CN2CCCCC2)c1)c1ccccc1 | 138 to 140
Cc1nc(NCCc2ccccc2)sc1-c1ccnc(Nc2ccc(N3CCOCC3)cc2)n1 | 226 to 228
CCOCCC(=O)C=P(c1ccccc1)(c1ccccc1)c1ccccc1 | 63 to 65
CC(=O)Nc1ccnn1-c1c(F)c(F)c(C(F)(F)F)c(F)c1F | 102 to 104
Nc1nc2[nH]c(CCCCCCc3ccc(C(=O)N[C@@H](CCC(=O)O)C(=O)O)s3)cc2c(=O)[nH]1 | 183 to 184
COc1ccc2c(c1)/C(=C/C#N)CC2 | 95 to 96
COc1cccc(-c2cn(N)c(N)n2)c1 | 181 to 182
COc1cc(COc2nn(-c3ccccc3)cc2/C=C/C=O)ccc1OCc1nc(-c2ccco2)oc1C | 134 to 135
COc1c(OCc2ccc(-c3ccccc3S(=O)(=O)Nc3onc(C)c3C)c(COCCF)c2)cc(C)nc1C | 90 to 95
COCc1c(-c2ccno2)ncc2[nH]c3ccc(OCc4ccccc4)cc3c12 | 125 to 126
Nc1ccc2c(c1)CNCCS2 | 110 to 111
CC#CNC(=C[N+](=O)[O-])NCCSCc1ccccn1 | 147 to 148
Cn1cc(Br)cc(Nc2cc3n(n2)CCOC3)c1=O | 195 to 197
CCOC(=O)c1c(C(F)(F)F)ncc(C(=O)O)c1OC(C)C | 97 to 99
CC(C)(C)[Si](OCC1CSC2=C(O1)c1ccccc1C(=O)C2=O)(c1ccccc1)c1ccccc1 (stereo unspecified) | 205 to 210
